Values quoted from earlier work as cited in US11464797B2, “Use of vitamin composition in preparing drug for preventing, treating, or delaying Alzheimer's disease” (Zensun (Shanghai) Science & Technology, Co., Ltd., priority 2017, dated 2022).

Key:
[1] = test system: ATP level in CA1 area; details: after 10 min of hypoxia in rats, magnesium ion treated brain slices; untreated 16% of normal
[2] = test system: patients with mild cognitive impairment (MCI); details: long-term intake (6-48 months)

Row | Compound | ATP level, of normal brain slices [1] | cognitive function [2]
1 | [Mg+2] [magnesium ion, magnesium] | 32% | –
2 | vitamin E | – | effectively improve cognitive function
